Measurements from PubChem BioAssay AID2305 (GlaxoSmithKline (GSK), 2010).
Values joined by “and” are separate entries in the source; they are usually repeats but may differ in a detail not shown here. Equal entries are not always repeated.

What follows are compounds tested on P. falciparum 3D7 growth, pLDH absorbance (assay: blood-stage malaria parasite growth potency – strain 3D7, dose response (AID 2305)).

| SMILES | IC50 |
| --- | --- |
| OC(CNc1ccnc(Nc2cccc(Cl)c2)n1)c1cccc(F)c1 (centres undefined) | 970 nM |
| Cc1c(C)c2c(c(C)c1O)CC[C@](C)(C(=O)NC1CCC(CN3CCC(c4c[nH]c5ccccc45)CC3)CC1)O2 (some centres undefined) | 880 nM and 1120 nM |
| CCc1c(CCNCCCCCCNCCc2ccc([N+](=O)[O-])cc2)ccc(O)c1O | 780 nM |
| Cc1cc(N2CCN(C)CC2)nc2ccc(NC(=O)c3cccc(N(C)C)c3)cc12 | 950 nM |
| c1ccc2[nH]c(-c3ccc(-c4ccc(CNCCc5ccncc5)cc4)s3)nc2c1 | 160 nM |
| CCCCCCCCCCS(=O)(=O)N[C@H](COCc1cccc(Oc2ccccc2)c1)COP(=O)(O)OC | 1020 nM |
| CCCN(CCC)CCCNc1ccc(C(=O)Nc2ccc(C(C)C)cc2)cc1[N+](=O)[O-] | 710 nM |
| CN(Cc1ccccc1)C1CCN(CCc2c[nH]c3ccc(F)cc23)CC1 | 600 nM |
| Cc1cc(N2CC=CCC2)nc(/N=C(\N)Nc2ccc(Cl)cc2)n1 | 780 nM |
| CCOc1cc2ncnc(Nc3ccc(OCc4ccccc4OC)c(OC)c3)c2cc1OCC | 880 nM |
| O=C(NCCC1CCN(CCc2c[nH]c3ccccc23)CC1)Nc1ccc(Cl)c(Cl)c1 | 830 nM |
| CC(CN(C)C)C(=O)Nc1ccc(-c2cccc(-c3nc4ccc(C(F)(F)F)cc4[nH]3)c2)cc1 (centres undefined) | 210 nM |
| N#Cc1ccc(N2CCN(Cc3cccc(-c4ccc(-c5nc6ccc(C(F)(F)F)cc6[nH]5)cc4)c3)CC2)nc1 | 700 nM |
| COc1ccc(-c2ccc(CNCc3ccccc3)cc2)cc1S(=O)(=O)NCCN1CCCC1 | 730 nM |
| Cc1onc(-c2ccc(Cl)cc2)c1-c1ccnn1S(=O)(=O)c1ccc(Cl)cc1 | 710 nM |
| Cc1cccn2c(=O)c3cc(C(=O)NC4CCCCC4)c(=N)n(CCCn4ccnc4)c3nc12 | 750 nM |
| O=C(NCCN1CCCC1)c1cccc(-c2ccc(-c3nc4ccc(F)cc4[nH]3)s2)c1 | 1530 nM |
| COc1ccc(C2C(C(=O)Nc3cc(OC)c(OC)c(OC)c3)c3cc(OC)c(OC)cc3C(=O)N2C)cc1 (centres undefined) | 800 nM |
| Cc1cc(NC(=O)c2cc(S(=O)(=O)N3CCCCC3)ccc2C)no1 | 720 nM |
| CCn1c(-c2nonc2N)nc2cnc(Oc3cccc(NC(=O)c4ccc(OCCN5CCCCC5)cc4)c3)cc21 | 1060 nM |
| O=C(/C=C/c1ccc(Cl)cc1Cl)N1CCC(CCN2CCC(c3c[nH]c4ccccc34)CC2)CC1 | 800 nM |
| CC(C)Cn1cc2c(ccc3nc(N)nc(N)c32)n1 | 300 nM |
| Cc1cc(N[C@@H](CC(C)C)C(=O)NCc2cccc(F)c2)nc(Nc2ccccc2)n1 | 1090 nM |
| CC1(C)N=C(N)N=C(N)N1c1cccc(I)c1 | 130 nM |
| C=CCc1ccccc1OCC(O)CN(C1CCCCC1)C1CCCCC1 (centres undefined) | 810 nM |

| SMILES | IC50 |
| --- | --- |
| O=C(/C=C/c1ccc(Cl)c(Cl)c1)NC1CCC(CN2CC[C@H](c3c[nH]c4ccccc34)[C@@H](O)C2)CC1 (some centres undefined) | 720 nM |
| CCC(Cc1ccccc1)c1cc(O)c(Cc2ccc(-c3ccccc3)cc2)c(=O)o1 (centres undefined) | 970 nM |
| N#Cc1ccc2c(c1)CN(C1CCC(NC(=O)c3cc(-c4ccc(Cl)cc4)cs3)CC1)CCC2 (centres undefined) | 960 nM |
| Cc1cc(-c2ccc(CNC3CCN(C)CC3)cc2)ccc1S(=O)(=O)NCc1ccccc1 | 850 nM |
| CCc1cn(C)c2c(N3CCCC3=O)cc(C(=O)N[C@@H](Cc3ccccc3)[C@H](O)CNC3CCCCC3)cc12 | 120 nM |
| COc1ccc2nc(/N=C(/N)NC(=O)Nc3ccccc3)nc(C)c2c1 | 1280 nM |
| CC1(C)C=C(c2ccncc2)c2cc(Cl)ccc2O1 | 430 nM |
| Fc1ccc2nc(-c3ccc(-c4ccc(CN5CCN(c6ccncc6)CC5)cc4)cc3)[nH]c2c1 | 250 nM |
| CN(C)CCNc1nccc(N2CCc3ncnc(Nc4ccc(OCc5cccc(F)c5)c(Cl)c4)c3C2)n1 | 140 nM |
| COc1cccc2cc(C(=O)N[C@@H](CC(C)C)C(=O)N[C@H](/C=N/NC(=O)N3CCN(C)CC3)CCc3ccccc3)oc12 | 620 nM |
| Cc1ccc(NC(=O)Nc2ccc(Cl)c(C(F)(F)F)c2)cc1-c1ccc(C(=O)NCCN2CCOCC2)cc1 | 810 nM |
| CCCCCCCN(Cc1ccc(OC(C)(C)C(=O)OCC)cc1)C(=O)Cc1ccc(F)cc1F | 1030 nM |
| Nc1nc(N)c2nc(C3CC=CCC3)c(N)nc2n1 (centres undefined) | 160 nM |
| NC(=O)CCC(NC(=O)CNC(=O)Nc1cccc(C(F)(F)F)c1)C(=O)O (centres undefined) | 800 nM |
| COc1ccc2nccc([C@@H](O)CN3CCC(NCc4cc5ccccc5s4)CC3)c2c1 | 350 nM |
| Cc1cc(=O)[nH]c(/N=C(/N)NOCc2ccccc2)n1 | 420 nM |
| O=C(/C=C/c1cccc(OC(F)(F)F)c1)NCCCCCN1CCC(c2c[nH]c3ccccc23)CC1 | 960 nM |
| CN(CCCNc1ccc(C(=O)Nc2ccc(C(F)(F)F)cc2)cc1[N+](=O)[O-])Cc1ccccc1 | 230 nM |
| CN(CCN(C)C(=O)NCc1ccccc1)C(=O)NCc1ccccc1 | 930 nM |
| Cc1ccc(-c2nnc(-c3ccc(C(=O)NC4CCN(Cc5ccc(C#N)cc5)CC4)cc3)o2)cc1Br | 850 nM |
| Cn1cccc1CCNCc1ccc(-c2cccc(-c3nc4ccc(F)cc4[nH]3)c2)cc1 | 1220 nM |
| O=S(=O)(c1c(Cl)cc(Cl)cc1Cl)N1CCCCC(c2ccc(Cl)cc2)=N1 | 400 nM |
| CCc1c(CCNCCCCCNCCc2ccc(OC)c(OC)c2CC)ccc(OC)c1OC | 1110 nM |
| CCCC(C)NC(=O)[C@H](Cc1ccccc1)NC(=O)c1ccc(O)c(-c2ccc(OC)cc2)c1 (some centres undefined) | 1240 nM |
